{"source": "paper PMC8448864", "about": "“Prolyl isomerase Pin1 plays an essential role in SARS-CoV-2 proliferation, indicating its possibility as a novel therapeutic target” (Scientific Reports, 2021)", "key": {"[1]": {"target": "recombinant Pin1 protein (Homo sapiens, UniProt Q13526)", "sequence (Q13526 whole entry, species assumed)": "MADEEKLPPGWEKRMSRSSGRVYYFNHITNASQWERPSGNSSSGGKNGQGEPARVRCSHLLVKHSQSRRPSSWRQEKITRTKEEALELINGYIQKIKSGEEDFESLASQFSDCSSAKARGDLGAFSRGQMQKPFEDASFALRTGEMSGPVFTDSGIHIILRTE", "assay": "In vitro PPIase assay using recombinant Pin1 protein (method of Janowski et al., Eurofins Selcia)", "type": "biochemical", "details": "for inhibition at 2 µM: concentration 2 µM; for inhibition at 20 µM: concentration 20 µM"}, "[2]": {"test_system": "SARS-CoV-2", "assay": "microbe, parasite or virus in culture", "type": "cell-based", "details": "for EC50: calculated using virus production at different drug concentrations"}, "[3]": {"test_system": "SARS-CoV-2", "type": "cell-based", "details": "for SARS-CoV-2 proliferation: MOI 0.01, harvested 24 h after infection"}, "[4]": {"test_system": "SARS-CoV-2", "assay": "Membrane fusion (CPE, syncytium formation) and fusion index of infected VeroE6/TMPRSS2 cells", "type": "cell-based", "details": "for Membrane fusion (CPE caused by viral infection): MOI 0.01, 24 h", "protocol": "Figure 2 Pin1 inhibitor H-77 inhibits SARS-CoV-2 proliferation in a concentration-dependent manner. VeroE6/TMPRSS2 cells were pretreated with the indicated concentrations of H-77 for 2 h, and were subjected to SARS-CoV-2 infection (MOI of 0.01) followed by incubation for 24 h in the presence of the same concentrations of H-77. (A) Western blotting of cell lysates (Duplicate in the figure) with SARS-CoV-2 N, Pin1, and actin antibodies. Full-length blots are presented in Supplementary Fig. 4. (B) vRNA copies contained in 5 µL of the supernatant were quantified by RT-qPCR using authorized SARS-CoV-2 N primers (n = 3). (C) Fusion index calculated by counting numbers of cells and nuclei of infected cells after Giemsa straining. Approximately 100 nuclei and cell number per field were counted for each of five fields. Error bars indicate standard deviation. *P < 0.05, **P < 0.01, Mann–Whitney U test, compared with 0 µM (DMSO). (D) Representative images of SARS-CoV-2-infected VeroE6/TMPRSS2 cells at 24 h post-infection with the indicated concentrations of H-77.\nThe cells were then washed with PBS, fixed with methanol, and stained with Giemsa staining solution. The fusion index was calculated as [1-(number of cells/number of nuclei)] as described previously. Approximately 100 nuclei and cell number per field were counted, and the average fusion index of five fields was calculated."}, "[5]": {"test_system": "VeroE6/TMPRSS2 cells"}, "[6]": {"test_system": "Pin1", "set-up": "method as in PMID 25849135", "details": "cited from earlier work"}, "[7]": {"test_system": "cyclophilin", "set-up": "method as in PMID 25849135", "details": "cited from earlier work"}, "[8]": {"test_system": "FKBP", "set-up": "method as in PMID 25849135", "details": "cited from earlier work"}, "[9]": {"details": "Severe acute respiratory syndrome coronavirus 2, VeroE6/TMPRSS2, read-out: EC50 (50% effective concentration, SARS-CoV-2 proliferation), VeroE6/TMPRSS2 cells"}, "[10]": {"details": "10 µM from 2 h before infection, 24 h after infection"}, "[11]": {"details": "Severe acute respiratory syndrome coronavirus 2, VeroE6/TMPRSS2 cells, read-out: EC50 (50% effective concentration, SARS-CoV-2 proliferation)"}}, "note": "Like-named read-outs stand apart in the source and are kept apart here."}
{"smiles": "O=C(Nc1ccc(OCc2ccccc2)cc1C(=O)O)c1ccc2ccccc2c1", "note": "[H-77]", "values": [{"measurement": "inhibition at 2 µM", "setting": "[1]", "value": 67, "unit": "%"}, {"measurement": "inhibition at 20 µM", "setting": "[1]", "value": 82, "unit": "%"}, {"measurement": "EC50", "setting": "[2]; [9]", "value": "< 5", "unit": "µM"}, {"measurement": "EC50", "setting": "[2]; read-out: EC50 (50% effective concentration, SARS-CoV-2 proliferation), VeroE6/TMPRSS2 cells", "value": 3.2, "unit": "µM"}, {"measurement": "SARS-CoV-2 proliferation", "setting": "[3]; 10 µM added 2 h after infection", "value": "almost completely blocked"}, {"measurement": "SARS-CoV-2 proliferation", "setting": "[3]; 10 µM added 6 h after infection", "value": "weaker but still significant inhibitory effect"}, {"measurement": "Amount of genomic RNA released from the cells (vRNA in supernatant)", "setting": "[3]; [10]", "value": "significantly reduced"}, {"measurement": "Intracellular viral N mRNA", "setting": "[3]; [10]", "value": "significantly reduced"}, {"measurement": "Membrane fusion (CPE caused by viral infection)", "setting": "[4]; concentrations above 7.5 μM", "value": "almost absent"}, {"measurement": "Membrane fusion (CPE caused by viral infection)", "setting": "[4]; drug concentration increased to 5 μM", "value": "less apparent"}]}
{"smiles": "O=C(Nc1ccc(OCc2ccccc2)cc1C(=O)O)c1cccc(Oc2ccccc2)c1", "note": "[H-363]", "values": [{"measurement": "inhibition at 20 µM", "setting": "[1]", "value": 82, "unit": "%"}, {"measurement": "EC50", "setting": "[2]; [11]", "value": 6.3, "unit": "µM"}]}
{"smiles": "O=C(Nc1ccc(OCc2ccc3ccccc3c2)cc1C(=O)O)c1ccc2ccccc2c1", "note": "[H-371]", "values": [{"measurement": "inhibition at 2 µM", "setting": "[1]", "value": 80, "unit": "%"}, {"measurement": "EC50", "setting": "[2]; [11]", "value": 4.2, "unit": "µM"}]}
{"smiles": "O=C1C=CC(=O)c2c(O)cccc21", "note": "[Juglone]", "values": [{"measurement": "Cell survival", "setting": "[5]", "value": "unable to survive"}]}
{"smiles": "O=C(O)c1cc(NC(=O)n2c3ccccc3c3ccccc32)cc(NC(=O)n2c3ccccc3c3ccccc32)c1", "note": "[H-596]", "values": [{"measurement": "inhibition at 1 µM", "setting": "[1]; concentration 1 µM", "value": 13, "unit": "%"}, {"measurement": "inhibition at 10 µM", "setting": "[1]; concentration 10 µM", "value": 101, "unit": "%"}, {"measurement": "EC50", "setting": "[2]; [11]", "value": 5.2, "unit": "µM"}]}
{"smiles": "O=C(O)[C@@H](Cc1ccc2ccccc2c1)OC(=O)n1c2ccccc2c2ccccc21", "note": "[H-175]", "values": [{"measurement": "inhibition at 20 µM", "setting": "[1]", "value": 89, "unit": "%"}, {"measurement": "EC50", "setting": "[2]; [11]", "value": 12, "unit": "µM"}]}
{"smiles": "CC1=C(/C=C/C(C)=C/C=C/C(C)=C/C(=O)O)C(C)(C)CCC1", "note": "[ATRA, all-trans retinoic acid, reference compound]", "values": [{"measurement": "Activity of Pin1", "setting": "[6]", "value": "inhibits"}, {"measurement": "EC50", "setting": "[2]; [9]", "value": 17.9, "unit": "µM"}, {"measurement": "SARS-CoV-2 protein and viral RNA levels", "setting": "[2]; concentration-dependent, pretreated 2 h, MOI 0.01, 24 h", "value": "marked reductions"}, {"measurement": "Activity of cyclophilin", "setting": "[7]", "value": "does not affect"}, {"measurement": "Activity of FKBP", "setting": "[8]", "value": "does not affect"}, {"measurement": "CPE of SARS-CoV-2", "setting": "[4]; VeroE6/TMPRSS2 cells", "value": "alleviated"}]}
